Read-outs that look alike come from different tables or passages of the source.
Tests used:
[1] = biological target: T1, human recombinant histamine H2 receptor (Homo sapiens, UniProt P25021); experiment: Histamine H2 radioligand binding ([125I]Aminopotentidine); details: for inhibition at 0.1 µM: 0.1 μM compound
T1 construct: expressed in transfected cells; host or cells: CHO-K1 cells
Outline: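 This radioligand binding assay measured displacement of [125I]Aminopotentidine from recombinant human histamine H2 receptors. Compounds were dissolved in 1% DMSO vehicle. Specific binding was calculated by subtracting non-specific binding, defined using 3 μM Tiotidine, and activity was reported as percentage inhibition of that specific binding.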

[2] = biological target: T2, human recombinant adrenergic α1D receptor (Homo sapiens, UniProt P25100); experiment: Adrenergic α1D radioligand binding ([3H]Prozosin); set-up: Inhibition of ligand binding, Adren. alpha1D: concentration or dose not given beside the values; details: percent inhibition of specific binding
T2 construct: expressed in transfected cells; host or cells: HEK-293 cells
T2 sequence (P25100 1-572): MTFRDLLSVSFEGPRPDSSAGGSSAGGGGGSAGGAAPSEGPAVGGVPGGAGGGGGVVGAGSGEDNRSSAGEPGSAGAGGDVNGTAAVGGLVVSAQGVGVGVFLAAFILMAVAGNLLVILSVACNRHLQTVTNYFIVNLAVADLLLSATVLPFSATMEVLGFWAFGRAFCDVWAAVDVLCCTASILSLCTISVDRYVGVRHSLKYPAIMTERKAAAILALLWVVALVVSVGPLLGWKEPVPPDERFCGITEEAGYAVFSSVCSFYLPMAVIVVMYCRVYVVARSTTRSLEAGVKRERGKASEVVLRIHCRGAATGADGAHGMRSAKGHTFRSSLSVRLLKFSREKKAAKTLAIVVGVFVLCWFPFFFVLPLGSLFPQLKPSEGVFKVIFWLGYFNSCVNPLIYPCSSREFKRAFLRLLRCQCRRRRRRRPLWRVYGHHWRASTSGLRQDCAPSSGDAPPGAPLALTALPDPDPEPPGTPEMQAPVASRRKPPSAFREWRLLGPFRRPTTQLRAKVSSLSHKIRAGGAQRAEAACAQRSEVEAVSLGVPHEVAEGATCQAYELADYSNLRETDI
Protocol: Compounds of invention were incubated with 0.6 nM [^3H]Prozosin for 60 minutes at 25° C. Non-specific binding was estimated in the presence of 10 μM phentolamine. Receptor proteins were filtered and washed, the filters were then counted to determine [^3H]Prozosin specifically bound. […] Biochemical assay results are presented as the percent inhibition of specific binding in Table 6.

[3] = biological target: T3, human recombinant serotonin (5-Hydroxytryptamine) 5-HT2A receptor (Homo sapiens, UniProt P28223); experiment: Serotonin 5-HT2A radioligand binding ([3H]Ketanserin); details: percent inhibition of specific binding
T3 construct: expressed in transfected cells; host or cells: CHO-K1 cells
T3 sequence (P28223 whole entry): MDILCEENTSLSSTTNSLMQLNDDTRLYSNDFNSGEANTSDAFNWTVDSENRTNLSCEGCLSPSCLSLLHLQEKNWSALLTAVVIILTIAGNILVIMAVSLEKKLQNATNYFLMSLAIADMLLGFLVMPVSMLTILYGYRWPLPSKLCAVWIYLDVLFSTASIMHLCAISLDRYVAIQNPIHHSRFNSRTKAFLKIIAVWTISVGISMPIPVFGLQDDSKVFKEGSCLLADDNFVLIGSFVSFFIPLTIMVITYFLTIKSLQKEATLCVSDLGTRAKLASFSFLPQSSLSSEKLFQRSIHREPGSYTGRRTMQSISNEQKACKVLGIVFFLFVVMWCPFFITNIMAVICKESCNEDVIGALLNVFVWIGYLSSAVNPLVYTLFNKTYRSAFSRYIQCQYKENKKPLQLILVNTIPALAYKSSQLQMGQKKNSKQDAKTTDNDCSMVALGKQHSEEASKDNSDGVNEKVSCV
Protocol: (§1) Compounds of the invention were incubated with 0.5 nM [^3H]Ketanserin for 60 minutes at 25° C. Non-specific binding was estimated in the presence of 1 μM Mianserin. Receptor proteins were filtered and washed, the filters were then counted to determine [^3H]Ketanserin specifically bound. […] Biochemical assay results are presented as the percent inhibition of specific binding in Table 6.

[4] = biological target: T4, human recombinant serotonin (5-Hydroxytryptamine) 5-HT2C receptor (Homo sapiens, UniProt P28335); experiment: Serotonin 5-HT2C radioligand binding ([3H]Mesulergine); set-up: Inhibition of ligand binding, Ser. 5-HT2C: concentration or dose not given beside the values; details: percent inhibition of specific binding
T4 construct: expressed in transfected cells; host or cells: CHO-K1 cells
T4 sequence (P28335 33-458): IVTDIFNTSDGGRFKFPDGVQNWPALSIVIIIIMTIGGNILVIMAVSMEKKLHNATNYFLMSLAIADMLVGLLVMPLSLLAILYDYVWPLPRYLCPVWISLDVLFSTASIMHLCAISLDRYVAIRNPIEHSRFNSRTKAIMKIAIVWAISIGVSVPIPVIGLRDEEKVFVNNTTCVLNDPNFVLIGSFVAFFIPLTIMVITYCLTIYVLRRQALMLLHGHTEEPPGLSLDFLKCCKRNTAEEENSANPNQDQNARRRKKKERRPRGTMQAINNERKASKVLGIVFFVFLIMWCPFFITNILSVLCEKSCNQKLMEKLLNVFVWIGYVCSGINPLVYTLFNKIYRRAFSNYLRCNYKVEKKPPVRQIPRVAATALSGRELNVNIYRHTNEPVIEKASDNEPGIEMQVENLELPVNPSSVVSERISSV
Protocol: as §1, with “1” for “0.5”, “[^3H]Mesulergine” for “[^3H]Ketanserin”

[5] = biological target: T5, Serotonin (5-Hydroxytryptamine) 5-HT7 (Homo sapiens, UniProt P34969); experiment: Serotonin 5-HT7 radioligand binding ([3H]LSD); set-up: Inhibition of ligand binding, Ser. 5-HT7: concentration or dose not given beside the values; details: percent inhibition of specific binding
T5 construct: expressed in transfected cells; host or cells: CHO cells
T5 sequence (P34969 whole entry): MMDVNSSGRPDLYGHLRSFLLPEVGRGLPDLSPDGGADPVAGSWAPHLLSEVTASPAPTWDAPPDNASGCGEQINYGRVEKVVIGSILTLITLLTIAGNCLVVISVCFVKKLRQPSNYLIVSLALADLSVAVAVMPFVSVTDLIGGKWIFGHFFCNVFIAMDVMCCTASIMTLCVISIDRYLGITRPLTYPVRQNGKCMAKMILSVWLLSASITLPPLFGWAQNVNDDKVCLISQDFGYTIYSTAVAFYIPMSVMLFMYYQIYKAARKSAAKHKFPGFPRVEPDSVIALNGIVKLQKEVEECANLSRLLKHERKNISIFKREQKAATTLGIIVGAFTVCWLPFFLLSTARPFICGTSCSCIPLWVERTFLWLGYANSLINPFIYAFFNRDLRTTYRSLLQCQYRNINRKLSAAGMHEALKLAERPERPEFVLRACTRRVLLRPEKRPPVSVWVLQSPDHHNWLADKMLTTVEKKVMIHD
Protocol: Lysergic acid diethylamide (LSD) for 2 hours at 25° C. […] Receptor proteins were filtered and washed, the filters were then counted to determine [^3H]LSD specifically bound. […] Biochemical assay results are presented as the percent inhibition of specific binding in Table 6.

[6] = 1 μM compound, 0.1 nM [125I]Aminopotentidine, read-out: Histamine Binding H2, percent inhibition of specific binding
[7] = percent inhibition of specific binding, screened at 1 μM, read-out: Inhibition of ligand binding, Hist. H2
[8] = 0.1 nM [125I]Aminopotentidine, read-out: Histamine Binding H2, percent inhibition of specific binding

T1 sequence (P25021 whole entry): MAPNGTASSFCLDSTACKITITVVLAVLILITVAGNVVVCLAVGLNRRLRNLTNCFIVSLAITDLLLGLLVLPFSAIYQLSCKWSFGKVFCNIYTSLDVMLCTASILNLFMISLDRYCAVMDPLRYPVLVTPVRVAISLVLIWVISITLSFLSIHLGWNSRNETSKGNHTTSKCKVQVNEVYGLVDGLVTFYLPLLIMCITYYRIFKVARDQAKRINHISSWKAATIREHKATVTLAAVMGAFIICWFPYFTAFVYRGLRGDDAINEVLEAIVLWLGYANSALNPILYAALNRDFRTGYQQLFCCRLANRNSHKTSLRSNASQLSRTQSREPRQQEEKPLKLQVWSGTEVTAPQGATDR

| Compound | inhibition at 1 µM [1, 6] [%] | inhibition at 1 µM [1, 7] [%] | Inhibition of ligand binding, Adren. alpha1D [2] [%] | Inhibition of ligand binding, Ser. 5-HT2A [3] [%] | Inhibition of ligand binding, Ser. 5-HT2C [4] [%] | Inhibition of ligand binding, Ser. 5-HT7 [5] [%] | inhibition at 0.3 µM ([1]; 0.3 μM compound, 0.1 nM [125I]Aminopotentidine, read-out: Histamine Binding H2, percent inhibition of specific binding) [%] | inhibition at 0.1 µM [1, 8] [%] |
| --- | --- | --- | --- | --- | --- | --- | --- | --- |
| CCOC(=O)N1CCc2c(c3cc(C)ccc3n2CCc2ccccc2)C1 [Compound 24, ethyl 3,4-dihydro-8-methyl-5-phenethyl-1H-pyrido[4,3-b]indole-2(5H)-carboxylate] | 13 | 13 | 6 | −2 | 1 | −2 | – | – |
| CN1CCc2c(c3cc(Cl)ccc3n2CCc2ccccn2)C1 [Compound 30, 8-chloro-2,3,4,5-tetrahydro-2-methyl-5-(2-(pyridin-2-yl)ethyl)-1H-pyrido[4,3-b]indole] | 34 | 34 | 68 | 91 | 90 | 99 | – | – |
| CCN1CCc2c(c3cc(C)ccc3n2CCc2ccc(C)nc2)C1 [Compound 31, 2-ethyl-2,3,4,5-tetrahydro-8-methyl-5-(2-(6-methylpyridin-3-yl)ethyl)-1H-pyrido[4,3-b]indole] | 34 | 34 | 70 | 65 | 39 | 85 | – | – |
| Cc1ccc2c(c1)c1c(n2CCc2ccc(Cl)cc2)CCN(C)C1 [Compound 32, 5-(4-chlorophenethyl)-2,3,4,5-tetrahydro-2,8-dimethyl-1H-pyrido[4,3-b]indole] | 101 | 101 | 94 | 96 | 100 | 101 | 99 | – |
| Cc1ccc2c(c1)c1c(n2CCc2ccc(F)cc2)CCN(C)C1 [Compound 33, 5-(4-fluorophenethyl)-2,3,4,5-tetrahydro-2,8-dimethyl-1H-pyrido[4,3-b]indole] | 91 | 91 | 88 | 97 | 95 | 91 | – | 41 |
| Cc1ccc2c(c1)c1c(n2CCc2ccccc2F)CCN(C)C1 [Compound 34, 5-(2-fluorophenethyl)-2,3,4,5-tetrahydro-2,8-dimethyl-1H-pyrido[4,3-b]indole] | 89 | 89 | 76 | 99 | 96 | 97 | – | – |
| CN1CCc2c(c3cc(Cl)ccc3n2CCc2ccccc2)C1 [Compound 36, 8-chloro-2,3,4,5-tetrahydro-2-methyl-5-phenethyl-1H-pyrido[4,3-b]indole] | 92 | 92 | 87 | 98 | 94 | 99 | – | 41 |
| CN1CCc2c(c3cc(I)ccc3n2CCc2ccccc2F)C1 [Compound 89, 5-(2-fluorophenethyl)-2,3,4,5-tetrahydro-8-iodo-2-methyl-1H-pyrido[4,3-b]indole] | 88 | 88 | 82 | 90 | 97 | 100 | – | – |
| Cc1ccc2c(c1)c1c(n2Cc2ccccc2)CCN(C)C1 [Compound 137, 5-benzyl-2,3,4,5-tetrahydro-2,8-dimethyl-1H-pyrido[4,3-b]indole] | 45 | 45 | 12 | −2 | 10 | 15 | – | – |
| CCN1CCc2c(c3cc(C)ccc3n2Cc2ccc(C)nc2)C1 [Compound 138, 2-ethyl-2,3,4,5-tetrahydro-8-methyl-5-((6-methylpyridin-3-yl)methyl)-1H-pyrido[4,3-b]indole] | 27 | 27 | 33 | 14 | 5 | 23 | – | – |
| Cc1ccc2c(c1)c1c(n2Cc2ccc(C)nc2)CCN(C)C1 [Compound 139, 2,3,4,5-tetrahydro-2,8-dimethyl-5-((6-methylpyridin-3-yl)methyl)-1H-pyrido[4,3-b]indole] | – | 7 | 25 | 2 | 0 | 74 | – | – |
| CCN1CCc2c(c3cc(C)ccc3n2Cc2ccccc2)C1 [Compound 140, 5-benzyl-2-ethyl-2,3,4,5-tetrahydro-8-methyl-1H-pyrido[4,3-b]indole] | 45 | 45 | 14 | −3 | −10 | 2 | – | – |
| Cc1ccc2c(c1)c1c(n2CCC2CCCCC2)CCN(C)C1 [Compound 163, 5-(2-cyclohexylethyl)-2,3,4,5-tetrahydro-2,8-dimethyl-1H-pyrido[4,3-b]indole] | 88 | 88 | 49 | 92 | 99 | 95 | – | – |
| Cc1ccc2c(c1)c1c(n2CCN2CCCC2)CCN(C)C1 [Compound 221, 2,3,4,5-tetrahydro-2,8-dimethyl-5-(2-(pyrrolidin-1-yl)ethyl)-1H-pyrido[4,3-b]indole] | 52 | 52 | 30 | 46 | 69 | 36 | – | – |
| Cc1ccc2c(c1)c1c(n2CCC(=O)N2CCC(N)CC2)CCN(C)C1 [Compound 231, 1-(4-aminopiperidin-1-yl)-3-(1,2,3,4-tetrahydro-2,8-dimethylpyrido[4,3-b]indol-5-yl)propan-1-one] | 4 | 4 | 21 | 5 | 49 | 0 | – | – |
